Test results from patent US10227351B2, “Salt and polymorphic forms of (3R,4S)-L-((4-amino-5H-pyrrolo[3,2,-D]pyrimidin-7-yl)methyl)-4(methylthiomethyl)pyrodin-3-ol(MTDIA)” (VICTORIA LINK LIMITED, priority 2012, dated 2019).

Test: Stated properties of the phosphate salt form (no method described)
Assay type: physicochemical
Conditions: comparator not stated in that sentence, no data given

## CSC[C@H]1CN(Cc2c[nH]c3c(N)ncnc23)C[C@@H]1O [(3R,4S)-1-((4-amino-5H-pyrrolo[3,2-d]pyrimidin-7-yl)methyl)-4-(methylthiomethyl)pyrrolidin-3-ol phosphate]
  solubility: improved
  stability: improved
